Test [1] relates to MCP-1 secretion from human aortic endothelial cells (HAEC). The experiment in a line: Secretion of MCP-1 from TNF-α stimulated human aortic endothelial cells (ELISA). The following applies: test agent 0.03 to 30 μM, TNF-α 10 ng/mL for 4 hours, FIG. 2. The format is cell-based. The method, then: An effect on the secretion of MCP-1 from vascular endothelial cells was investigated using human aortic endothelial cells (available from Clonetics Corp., USA, and hereienafter abbreviated as “HAEC”). In usual, the HAEC cells were cultured in EGM-2 medium (Clonetics) containing 2% FBS (Clonetics) in a CO2 incubator (5% CO2, 37° C.). On the first day, the HAEC cells suspended in EGM-2 medium containing 2% FBS were seeded in 96-well plates at 1×10^5 cells/well and then cultured. On the second day, after the cells were washed with PBS, the culture medium was replaced with 200 μL of EGM-2 medium containing 0.4% FBS and the test agent at various concentrations (0.03 to 30 μM) (final DMSO concentration: 0.1%) to culture the cells for 24 hours. On the third day, after the cells were washed with PBS, the culture medium was replaced with 200 μL of EGM-2 medium containing 0.4% FBS, TNF-α (10 ng/mL), and the test agent at various concentrations (0.03 to 30 μM) (final DMSO concentration: 0.1%) to stimulate the cells for 4 hours. After stimulation with TNF-α, the culture medium was collected to measure the MCP-1 concentration of the culture medium by the use of a human MCP-1 ELISA kit (Biosource).

In test [2] the test system is VCAM-1 expression in human aortic endothelial cells (HAEC). In words: Expression of VCAM-1 in TNF-α stimulated human aortic endothelial cells (cell ELISA). The format is cell-based. To be noted: test agent 0.03 to 30 μM, TNF-α 10 ng/mL for 4 hours, FIG. 1. How it is done:
An effect on the expression of adhesion molecules in vascular endothelial cells was investigated using human aortic endothelial cells (available from Clonetics Corp., USA, and hereinafter abbreviated as “HAEC”). In usual, the HAEC cells were cultured in EGM-2 medium (Clonetics) containing 2% FBS (Clonetics) in a CO2 incubator (5% CO2, 37° C.). On the first day, the HAEC cells suspended in EGM-2 medium containing 2% FBS were seeded in 96-well plates at 1×10^5 cells/well and then cultured. On the second day, after the cells were washed with PBS, the culture medium was replaced with 200 μL of EGM-2 medium containing 0.4% FBS and the test agent at various concentrations (0.03 to 30 μM) (final DMSO concentration: 0.1%) to culture the cells for 24 hours. On the third day, after the cells were washed with PBS, the culture medium was replaced with 200 μL of EGM-2 medium containing 0.4% FBS, TNF-α (10 ng/mL) and the test agent at various concentrations (0.03 to 30 μM) (final DMSO concentration: 0.1%) to stimulate the cells for 4 hours. After stimulation with TNF-α, the cells were washed with PBS, and then the amount of VCAM-1 expressed was evaluated according to the following cell ELISA method using an anti-human VCAM-1 antibody solution (PharMingen). Namely, the cells were fixed and blocked using paraformaldehyde, and then 200 μL of the anti-human VCAM-1 antibody solution (PharMingen) was added as a primary antibody to induce a primary antibody response for overnight incubation. Next day, 200 μL of HRP-labeled anti-Mouse IgG (γ+L) Goat F (Ab7)2 was added as a secondary antibody to induce a secondary antibody response for 4 hours, and then a substrate solution (ortho-phenylenediamine and hydrogen peroxide) was added. After reaction, the absorbance was measured using a microplate spectrophotometer, and the obtained absorbance was used as an index of the amount of VCAM-1 expressed.
On the technique in general: In an ELISA, binding on a coated surface is turned into a signal by an enzyme label.

A further test concerns the target T1, human PPARα (Homo sapiens, UniProt Q07869).
T1 sequence (Q07869 239-466 limits assumed): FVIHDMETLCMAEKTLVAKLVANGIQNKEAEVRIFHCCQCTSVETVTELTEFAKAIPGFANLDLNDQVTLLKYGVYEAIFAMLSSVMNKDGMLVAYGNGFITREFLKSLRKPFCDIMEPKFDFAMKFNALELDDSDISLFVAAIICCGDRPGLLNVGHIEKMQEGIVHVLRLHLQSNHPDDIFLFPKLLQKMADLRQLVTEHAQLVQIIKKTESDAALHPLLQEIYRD
The experiment in a line: cell-based. How it is done:
(§1) On the second day, a transfection mixture, which contained with 9 μL of TransIT-LT1 (Takara), 2 μg of the Gal4-hPPARα (LBD) vector, the Gal4-hPPARγ (LBD) vector or the Gal4-hPPARδ (LBD) vector, 1 μg of the Gal4-Luc and 200 μL of DMEM (without FBS), was gently added to the cells at 200 μL per well. The cells were cultured all day and night to carry out gene introduction to the cells. For the investigation of the specificity of the effect on the introduced PPAR genes, gene introduction was carried out in the same manner described above using a vector without PPAR ligand-binding domain (hereinafter abbreviated as a “Gal4-control vector”). On the third day, the cells in 3 wells of the 6-well plates were combined to adjust the concentration of cells to 3×10^5 cells/mL, and the obtained one was dispensed in 96-well plates at 100 μL/well to culture the cells. On the fourth day, the culture medium was replaced with 50 μL of the DMEM (+) containing the test compound at various concentrations (0.03 to 30 μM) (final DMSO concentration: 0.1%) to culture the cells. After the cells were exposed to the compound for 32 hours, 50 μL of Luc-Screen (Applied Biosystems) was added. 70 μL of the reaction solution in each well was moved to white plates to measure luminescence emitted due to the reaction of luciferase by the use of a Microplate Luminometer (EG & G berthold, LB96P).

The target in a further test is T2, human PPARγ (Homo sapiens, UniProt P37231).
T2 construct: expressed in transfected cells; host or cells: 293 T cells
T2 sequence (P37231 238-503 limits assumed): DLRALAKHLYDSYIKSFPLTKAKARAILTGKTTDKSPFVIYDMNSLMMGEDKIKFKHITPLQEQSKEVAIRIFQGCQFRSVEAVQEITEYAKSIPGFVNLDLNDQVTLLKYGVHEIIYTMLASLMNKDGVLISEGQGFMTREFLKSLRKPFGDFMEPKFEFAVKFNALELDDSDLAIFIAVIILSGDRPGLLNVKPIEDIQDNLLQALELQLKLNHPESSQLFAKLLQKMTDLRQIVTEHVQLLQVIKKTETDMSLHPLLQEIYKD
In words: PPARγ transcription activation, Gal4-hPPARγ (LBD)/Gal4-Luc reporter in 293 T cells. The format is cell-based. The following applies: Gal4-hPPARγ (LBD) luciferase reporter, 32 hours exposure, 0.03 to 30 μM, read-out: EC50 values of PPARs transcription activation effect, PPARγ.

Another test has as its target T3, human PPARδ (Homo sapiens, UniProt Q03181).
T3 construct: expressed in transfected cells; host or cells: 293 T cells
T3 sequence (Q03181 211-439 limits assumed): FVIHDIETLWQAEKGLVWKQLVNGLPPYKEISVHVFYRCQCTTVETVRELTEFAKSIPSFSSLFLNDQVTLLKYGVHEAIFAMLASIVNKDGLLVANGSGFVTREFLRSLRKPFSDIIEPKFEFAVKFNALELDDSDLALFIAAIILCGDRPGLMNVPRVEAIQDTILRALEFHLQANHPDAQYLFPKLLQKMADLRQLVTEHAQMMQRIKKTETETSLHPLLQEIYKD
The experiment in a line: PPARδ transcription activation, Gal4-hPPARδ (LBD)/Gal4-Luc reporter in 293 T cells. To be noted: Gal4-hPPARδ (LBD) luciferase reporter, 32 hours exposure, 0.03 to 30 μM, read-out: EC50 values of PPARs transcription activation effect, PPARδ. In kind it is cell-based. How it is done: as §1
In general terms: Reporter assays use an easily measured gene product as a stand-in for the process of interest.

The values that follow come from patent US20040198774A1, “Preventive and/or remedial agent for disease attributable to arteriosclerotic activity” (priority 2001, published 2004).

pEC50: −log10 of the molar value.

For the compound `Cc1cccc(Nc2cc(Cl)nc(SCC(=O)O)n2)c1C` [Wy-14643], the “effect on the secretion of MCP-1 induced by stimulation with TNF-α” value (“effect on the secretion of MCP-1 induced” for short) in test [1] is recorded as “no effect”. Besides, in test [2], the “effect on the expression of VCAM-1 induced by stimulation with TNF-α” value (shortened to “effect on the expression”) is on record as “suppressed”.
As to `Cc1cc(SCc2sc(-c3ccc(C(F)(F)F)cc3)nc2C)ccc1OCC(=O)O` [GW501516], the “effect on the secretion of MCP-1 induced” value in test [1] is listed as “suppressed”. Also, the “effect on the expression” value in test [2] is given as “suppressed”.
For orientation: pEC50 means the negative decadic logarithm of the EC50, by convention in mol/L. For `O=C1NC(=O)C(Cc2ccc3cc(OCc4ccccc4F)ccc3c2)S1` (stereo not drawn) [MCC-555, 5-[6-(2-fluorobenzyloxy)-2-naphthyl]-methyl-thiazolidine-2,4-dione], the pEC50 was 6.00 on human PPARα, 5.21 at human PPARγ and 5.92 at human PPARδ.
As to `CN(CCOc1ccc(CC2SC(=O)NC2=O)cc1)c1ccccn1` (stereo not drawn) [Rosiglitazone], the “effect on the secretion of MCP-1 induced” value in test [1] was “no effect”. For the same compound, the “effect on the expression” value in test [2] is reported as “no effect”.
As to `CC(C)OC(=O)C(C)(C)Oc1ccc(C(=O)c2ccc(Cl)cc2)cc1` [Fenofibrate], the “effect on the secretion of MCP-1 induced” value in test [1] is on record as “no effect”.
`CCc1ccc(CCOc2ccc(CC3SC(=O)NC3=O)cc2)nc1` (stereo not drawn) [Pioglitazone]: in test [1], the “effect on the secretion of MCP-1 induced” value was “no effect”. Further, the “effect on the expression” value in test [2] was “no effect”.
